Experimental data: patent US20070202047A1, “Polyamine-substituted ligands for use as contrast agents” (priority 2006, published 2007)
Entries after “also recorded” stand apart in the source; their conditions may differ. Values belong to the molecule of their own block, whether it stands above or below them.

How the values were obtained:
[1] = system: MH3924A Morris hepatoma cells; experiment: Intracellular uptake of gadolinium complexes (ICP-MS); format: cell-based, rat
Method: (§1) Cell culture. B16 melanoma cells (mouse) and MH3924A Morris hepatoma cells (rat) were obtained from the German Cancer Research Center (DKFZ) tumor bank and grown at 37° C. as stock cultures in RPMI 1640 supplemented with 10% fetal calf serum and 1% glutamine as standard medium under a 5% CO2 atmosphere (all components: Pan Biotech GmbH, Aidenbach, Germany). For contrast agent uptake studies 10^6 cells were inoculated into 25 cm^2 culture flasks (BD Biosciences, Bedford, USA) and grown for 24 h in 10 mL of the standard culture medium. Cells were then incubated for an additional 24 h (1 h for temperature dependence studies) with fresh medium containing 0, 1, 2.5, 5 or 10 μM of the selected gadolinium complex (three replicate flasks for each incubation). Afterwards the medium was removed, cells were trypsinated, washed twice, resuspended in culture medium and counted (typical yields: 3.5-6 million cells). For comparison 2.5×10^5 human melanocytes (Promo Cell, Heidelberg, Germany) were incubated for 24 h with melanocyte growth medium (Promo Cell, Heidelberg, Germany) containing 0, 1, 2.5, 5 or 10 μM of the selected gadolinium complex (two replicate flasks for each incubation). The work up procedure was as described above typically yielding 2.5×10^5 cells. Cultured human hepatocytes (Cytonet GmbH, Weinheim, Germany) embedded in a collagen matrix in a 12 well microtiter plate, with 6×10^5 viable cells per well were incubated for 24 h in hepatocyte growth medium (Cytonet GmbH, Weinheim, Germany) containing the same concentration series of selected gadolinium complexes. Afterwards the medium was removed, cells were separated using collagenase (Roche Diagnostics, Mannheim, Germany). After digestion the cells were washed twice with PBS, resuspended in culture medium and counted (typical yields: 6×10^5 cells per tube). The intracellular gadolinium content was determined by ICP-MS as described below.
(§2) ICP-MS. Samples containing the above mentioned number of harvested cells were digested with 50% concentrated HNO3 (Superselect; Merck, Darmstadt, Germany) under microwave heating with a Mars 5 apparatus (CEM GmbH, Kamp-Lintfort, Germany). To each sample 100 μL of an aqueous solution of rhodium chloride (1 μg/mL) were added so that Rh-103 could be used as an internal quantification standard. Gd-160 measurements were performed with the ICP-MS instrument mentioned above. The gadolinium concentrations were determined using standard curves created prior to cell analyses. For each uptake incubation condition triplicate cell samples were analyzed, and Gd content for each sample was recorded as the mean of two MS determinations.
(§3) Intracellular Uptake of Gadolinium Complexes. B16 melanoma and MH3924A hepatoma cells as well as human melanocytes and hepatocytes were incubated for 24 h in the presence of the gadolinium complexes shown in FIG. 1, using concentrations in the range of 1-10 μM. Incubations with the unsubstituted [Gd(DTPA)(H2O)]^2−complex (Magnevist®) served as controls. Following cell harvest and hydrolysis, inductively coupled plasma mass spectrometry (ICP-MS) with direct detection of gadolinium was used to quantitate complex uptake (triplicate cultures for each incubation).
(§4) Cell Uptake Studies. A493 (human kidney), B16 melanoma cells (mouse), HeLa (human cervix), MCF-7 (human breats), MH3924A (Morris hepatoma) cells (rat) and 3T3 NIH (mouse fibroblasts) were obtained from the DKFZ tumor cell collection. 3×10^6 cells of each cell type were grown for 24 hours in culture flasks. Afterwards they were incubated for 1 hour in 10 mL culture media containing 0, 10, 50 and 100 μM of Gd-2.2. Gd-3.2 or Gd-4.2. Afterwards the medium was removed, the cells were trypsinated, washed twice, resuspended in culture medium and counted. The gadolinium uptake was determined in triplicate. […] cells were incubated with 0, 1, 2.5, 5 and 10 μM of the Gd-1.2. and Gd-5.2. for 24 h. […]

B16 melanoma cells = experiment: as above; format: cell-based, mouse; details: for factor of higher cellular uptake in B16 melanoma vs. the hepatoma cells: 24-h incubation (FIG. 2A)
Method: as §1, §2, §3, §4

Complex stability = format: physicochemical; details: method of Sherry et al.
Method: Complex stability. The stability constants were determined using a method of Sherry et al. (39).

[2] = Biodistribution and excretion in tumor-bearing ACI rats; format: in vivo, rat
Method: (§5) Animal models. For in vivo tumor studies 2×10^6 MH3924A tumor cells were injected subcutaneously into the right thigh of male ACI rats (Charles River, Sulzfeld, Germany) weighing 220 to 260 g. All animal experiments were performed in compliance with the German Animal Protection Laws (Permission 35-9185.81/G-7-03, Reg.-Praesidium, Karlsruhe, Germany).
Biodistribution and excretion data. At 14 days after tumor inoculation, when tumors had reached a diameter of ca. 5-6 mm, the biodistribution experiments were initiated. Each animal (210-250 g) was given an intravenous tail-vein injection of […] Magnevist® (Schering, Berlin, Germany) or […] of Gd-5.1. or Gd-6.1. 1 h and 24 hs post-injection (p.i.), the animals were weighed, sacrificed by cervical dislocation and dissected. Organs or tissues were blotted dry and weighed. Samples containing 100-500 mg of the tumor or organs were digested with concentrated HNO3 (Superselect; Merck, Darmstadt, Germany) and H2O2 under microwave heating with a Mars 5 apparatus (CEM GmbH, Kamp-Lintfort, Germany). To each sample 100 μL of an aqueous solution of rhodium chloride (1 μg/mL) were added so that Rh-103 could be used as an internal quantification standard. Gd-160 measurements were performed with the ICP-MS instrument mentioned above. The gadolinium concentrations were determined using standard curves created prior to tissue analyses. The results were expressed as % ID/g tissue. Urine and faeces were gathered in order to measure the excreted amount of Gd(III).

[3] = system: subcutaneous MH3924A tumor; experiment: MRI of ACI rats bearing a subcutaneous MH3924A tumor; format: in vivo, rat; details: 24 h post Gd, 0.1 mmol/kg i.v., 2.35 T
Method: as §5
MRI. At 25 days after inoculation, when tumors had reached a diameter of ca. 10-15 mm, the MR imaging experiments were initiated. ACI rats were anesthetized by intravenous injection of ketamin (Ketanest®, 0.1 mg/g body wt.; Parke-Davis, Berlin, Germany). Then a dose of 0.1 mmol/kg Magnevist® or Gadovist® (Schering, Berlin, Germany) or one of the synthesized agents Gd-3.1., Gd-5.1. or Gd-6.1. was injected intravenously into a lateral tail vein. For one experiment a higher dose (0.36 mmol/kg) of Magnevist® was used. Individual rats were examined by MRI at 1 h and 24 h post Gd, in the case of Magnevist® also at ca. 15 min post Gd. Proton imaging studies were performed at 2.35 T (100.3 MHz) with a Biospec 24/40 instrument (Bruker BioSpin MRI, Ettlingen, Germany). […] Two transaxial multislice imaging protocols were applied with a field of view of 70×70 mm, 128 time-domain data points, 96 phase-encoding steps, and 16 slices of 2 mm thickness. A multi-spin-echo sequence was used for proton-density and T2-weighted images (repetition time TR=2 s, 12 echoes with echo times TE of 8, 16, 24, . . . 96 ms, number of averages=1), and a spoiled gradient-echo sequence was used for T1-weighted imaging (TR=212 ms, TE=5 ms, flip angle=60°, number of averages=3). The data were Fourier transformed to give a 128×128 image matrix with 0.55 mm pixel resolution. Analogous T1-weighted images with coronal slices were acquired with a field of view of 80×80 mm and 3-mm slice thickness.
Imaging viewing, ROI analysis and export of TIFF files was performed with the freeware MRIcro from Chris Rorden (http://people.cas.sc.edu/rorden/mricro.html).

MH3924A cells = experiment: Polyamine transport inhibition (binding inhibition assay with benzyl viologen); format: cell-based, rat; details: 25 fold molar excess of benzyl viologen over 1 μM Gd-5.1 or Gd-6.1, MH3924A
Method: Polyamine transport inhibition. 10^6 MH3924A cells were inoculated into 25 cm^2 culture flasks (BD Biosciences, Bedford, USA) and grown for 24 h in 10 mL of the standard culture medium. Cells were then incubated for an additional 24 h with fresh medium containing 1 μM of Gd-5.1. or Gd-6.1. and 0, 1, 10, 25, 50 or 100 μM of the polyamine uptake inhibitor benzyl viologen (34, 35). Afterwards the medium was removed, cells were trypsinated, washed twice, resuspended in culture medium and counted (typical yields: 3.5-6 million cells). The gadolinium content of the cells was determined by ICP-MS as described below.
as §2

[4] = 1 h post i.v. injection, one ACI rat, scaled to Gd dose of 100 μmol/kg

Compound: CCN(CC)CCNC(=O)c1ccc(NC(=O)CN(CCN(CCN(CC(=O)[O-])CC(=O)Nc2ccc(C(=O)NCCN(CC)CC)cc2)CC(=O)[O-])CC(=O)[O-])cc1.[Gd+3] [Gd-1.1]
intracellular uptake of gadolinium complex ([1]; MH3924A cells, 24-h incubation, 10 μM): ca. 0.062 fmol/cell
factor of higher cellular uptake in B16 melanoma vs. the hepatoma cells (B16 melanoma cells): ~2.2

Compound: CCN(CC)CCNC(=O)c1ccc(NC(=O)CN2CCN(CC(=O)[O-])CCN(CC(=O)[O-])CCN(CC(=O)[O-])CC2)cc1.[Gd+3] [Gd-1.2]
relative uptake (in words) ([1]; B16 and MH3924A, 24 h incubation, 1-10 μM): sufficient for MRI imaging purposes but was the lowest of all tested complexes

Compound: CCN(CC)CCNC(=O)CN(CCN(CCN(CC(=O)[O-])CC(=O)NCCN(CC)CC)CC(=O)[O-])CC(=O)[O-].[Gd+3] [Gd-2.1]
factor of higher cellular uptake in B16 melanoma vs. the hepatoma cells (B16 melanoma cells): ~1.72

Compound: CCCCCCCCCNC(=O)CN(CCN(CCN(CC(=O)[O-])CC(=O)NCCN(CC)CC)CC(=O)[O-])CC(=O)[O-].[Gd+3] [Gd-4.1]
intracellular uptake (neglectable, near the detection limit) (B16 melanoma cells; 24-h incubation, cell line and concentration not stated): 0.0036 fmol/cell

Compound: NCCCNCCCCN(CCCN)C(=O)CN1CCN(CC(=O)[O-])CCN(CC(=O)[O-])CCN(CC(=O)[O-])CC1.[Gd+3] [Gd-4.2]
relative uptake (in words) ([1]; MH3924A and B16 melanoma cells, 1 h incubation, 100 μM): comparable with the uptake of Gd-2.2., but somewhat lower; also recorded: lower than uptake of Gd-3.2. and Gd-2.2., but still sufficient for MRI imaging

complex stability constant (Complex stability): 4.22×10^15
Compound: NCCCCN(CCCNCCCN)C(=O)CN(CCN(CCN(CC(=O)[O-])CC(=O)N(CCCCN)CCCNCCCN)CC(=O)[O-])CC(=O)[O-].[Gd+3] [Gd-5.2]
intracellular uptake of gadolinium complex ([1]; MH3924A, 24 h incubation, 1-10 μM (concentration not given)): 0.3 fmol/cell
intracellular uptake of gadolinium complex (B16 melanoma cells; B16 melanoma cells, 24 h incubation, 1-10 μM (concentration not given)): 0.03 fmol/cell

Gd concentration, Blood [2, 4]: 4.8 nmol/g
Gd concentration, Bone (femur) [2, 4]: 0.8 nmol/g
Gd concentration, Bone Marrow (femur) [2, 4]: 1.5 nmol/g
Gd concentration, Brain [2, 4]: 0.4 nmol/g
Gd concentration, Kidney (+urine) [2, 4]: 40.7 nmol/g
Gd concentration, Liver [2, 4]: 3.0 nmol/g
Gd concentration, Lung [2, 4]: 4.1 nmol/g
Gd concentration, Muscle (femur) [2, 4]: 1.3 nmol/g
Gd concentration, Small Intestine [2, 4]: 1.8 nmol/g
Gd concentration, Spleen [2, 4]: 1.5 nmol/g
Gd concentration, Tumor (MH3924A) [2, 4]: 3.1 nmol/g
Gd concentration, Urine (cumulative) [2, 4]: 25805.3 nmol/g
gadolinium found in the urine ([2]; one hour post injection, ACI rat): 88%
Compound: CNC[C@H](O)[C@@H](O)[C@H](O)[C@H](O)CO.CNC[C@H](O)[C@@H](O)[C@H](O)[C@H](O)CO.O=C([O-])CN(CCN(CC(=O)[O-])CC(=O)O)CCN(CC(=O)[O-])CC(=O)O.[Gd+3] [Magnevist, gadopentetate dimeglumine, reference compound]
contrast ratio tumor vs. muscle tissue, T1 weighting [3]: no contrast with T1 weighting was achieved
intracellular uptake (below ICP-MS detection limit) ([1]; MH3924A cells, 24-h incubation, 1-10 μM, listed as [Gd(DTPA)(H2O)]^2−): < 0.0002 fmol/cell
intracellular uptake (below ICP-MS detection limit) (B16 melanoma cells; B16 melanoma cells, 24-h incubation, 1-10 μM): < 0.00002 fmol/cell
intracellular uptake (below ICP-MS detection limit) (B16 melanoma cells; B16 melanoma cells, 24-h incubation, 1-10 μM, listed as [Gd(DTPA)(H2O)]^2−): < 0.0002 fmol/cell

Compound: O.O=C([O-])CN1CCN(CC(=O)[O-])CCN(CC(=O)[O-])CCN(CC(=O)[O-])CC1.[Gd+3] [[Gd(DOTA)(H2O)]^−, reference compound]
intracellular uptake (below ICP-MS detection limit) ([1]; MH3924A cells, control incubation of Example 2): < 0.0002 fmol/cell
intracellular uptake (below ICP-MS detection limit) (B16 melanoma cells; B16 melanoma cells, control incubation of Example 2): < 0.0002 fmol/cell

Compound: c1ccc(C[n+]2ccc(-c3cc[n+](Cc4ccccc4)cc3)cc2)cc1 [benzyl viologen]
inhibition of Gd complex uptake (MH3924A cells): up to 90%
